According to patent publication US8183262B2, “Pyridine derivatives as mGluR2 antagonists” (Hoffmann-La Roche Inc., priority 2007, dated 2012):

SMILES | melting point
CC(C)(C)NS(=O)(=O)c1ccc(-c2cn(-c3cc(-c4ccc(C(F)(F)F)cc4)cc(C(F)(F)F)n3)cn2)s1 [Example 301, 5-{1-[6-Trifluoromethyl-4-(4-trifluoromethyl-phenyl)-pyridin-2-yl]-1H-imidazol-4-yl}-thiophene-2-sulfonic acid tert-butylamide] | > 250 °C
CC(C)(C)NS(=O)(=O)c1cnc(-c2cn(-c3cc(-c4ccc(C(F)(F)F)cc4)cc(C(F)(F)F)n3)cn2)s1 [Example 302, 2-{1-[6-Trifluoromethyl-4-(4-trifluoromethyl-phenyl)-pyridin-2-yl]-1H-imidazol-4-yl}-thiazole-5-sulfonic acid tert-butylamide] | 252 °C
Cc1cc(-c2ccc(C(F)(F)F)cc2)cc(-c2ccnc(-c3ccc(S(=O)(=O)NC(C)(C)C)s3)n2)n1 [Example 303, 5-{4-[6-Methyl-4-(4-trifluoromethyl-phenyl)-pyridin-2-yl]-pyrimidin-2-yl}-thiophene-2-sulfonic acid tert-butylamide] | 242 °C (dec.)
Cc1cc(-c2ccc(C(F)(F)F)cc2)cc(-c2ccnc(-c3ccc(S(=O)(=O)NC(C)(C)C)s3)c2)n1 [Example 304, 5-[6-Methyl-4-(4-trifluoromethyl-phenyl)-[2,4′]bipyridinyl-2′-yl]-thiophene-2-sulfonic acid tert-butylamide] | 225 °C
Cc1cc(-c2ccc(C(F)(F)F)cc2)cc(-c2cccc(-c3ccc(S(=O)(=O)NC(C)(C)C)s3)n2)n1 [Example 305, 5-[6′-Methyl-4′-(4-trifluoromethyl-phenyl)-[2,2′]bipyridinyl-6-yl]-thiophene-2-sulfonic acid tert-butylamide] | 227 °C
Cc1cc(-c2ccc(C(F)(F)F)cc2)cc(-c2ccnc(-c3cccc(N)c3)c2)n1 [Example 307, 3-[6-Methyl-4-(4-trifluoromethyl-phenyl)-[2,4′]bipyridinyl-2′-yl]-phenylamine] | 162 °C (dec.)
Cc1cc(-c2ccc(C(F)(F)F)cc2)nc(-c2ccnc(-c3cccc(S(N)(=O)=O)c3)n2)c1 [Example 308, 3-{4-[4-Methyl-6-(4-trifluoromethyl-phenyl)-pyridin-2-yl]-pyrimidin-2-yl}-benzenesulfonamide] | > 250 °C
Cc1cc(-c2ccc(C(F)(F)F)cc2)nc(-c2ccnc(-c3cccc(S(N)(=O)=O)c3)c2)c1 [Example 309, 3-[4-Methyl-6-(4-trifluoromethyl-phenyl)-[2,4′]bipyridinyl-2′-yl]-benzenesulfonamide] | 238 °C
Cc1cc(-c2ccc(C(F)(F)F)cc2)nc(-c2cccc(-c3cccc(S(N)(=O)=O)c3)n2)c1 [Example 310, 3-[4′-Methyl-6′-(4-trifluoromethyl-phenyl)-[2,2′]bipyridinyl-6-yl]-benzenesulfonamide] | 229 °C
Cc1nc(-c2cn(-c3cc(-c4ccc(C(F)(F)F)cc4)cc(C(F)(F)F)n3)cn2)sc1S(N)(=O)=O [Example 312, 4-Methyl-2-{1-[6-trifluoromethyl-4-(4-trifluoromethyl-phenyl)-pyridin-2-yl]-1H-imidazol-4-yl}-thiazole-5-sulfonic acid amide] | 170 °C (dec.)
NS(=O)(=O)c1ccc(-c2cn(-c3cc(-c4ccc(C(F)(F)F)cc4)cc(C(F)(F)F)n3)cn2)s1 [Example 314, 5-{1-[6-Trifluoromethyl-4-(4-trifluoromethyl-phenyl)-pyridin-2-yl]-1H-imidazol-4-yl}-thiophene-2-sulfonic acid amide] | 237 °C (dec.)
Cc1cc(-c2ccc(C(F)(F)F)cc2)cc(-c2ccnc(-c3ccc(S(N)(=O)=O)s3)n2)n1 [Example 315, 5-{4-[6-Methyl-4-(4-trifluoromethyl-phenyl)-pyridin-2-yl]-pyrimidin-2-yl}-thiophene-2-sulfonic acid amide] | > 250 °C
Cc1cc(-c2ccc(C(F)(F)F)cc2)cc(-c2ccnc(-c3ccc(S(N)(=O)=O)s3)c2)n1 [Example 316, 5-[6-Methyl-4-(4-trifluoromethyl-phenyl)-[2,4′]bipyridinyl-2′-yl]-thiophene-2-sulfonic acid amide] | > 250 °C
Cc1cc(-c2ccc(C(F)(F)F)cc2)cc(-c2cccc(-c3ccc(S(N)(=O)=O)s3)n2)n1 [Example 317, 5-[6′-Methyl-4′-(4-trifluoromethyl-phenyl)-[2,2′]bipyridinyl-6-yl]-thiophene-2-sulfonic acid amide] | 243 °C (dec.)
CC(C)(C)NS(=O)(=O)c1ccc(-c2cc(-c3cc(C(F)(F)F)cc(-c4ccc(C(F)(F)F)cc4)n3)ccn2)s1 [Example 319, 5-[4-Trifluoromethyl-6-(4-trifluoromethyl-phenyl)-[2,4′]bipyridinyl-2′-yl]-thiophene-2-sulfonic acid tert-butylamide] | 220 °C
NS(=O)(=O)c1ccc(-c2cc(-c3cc(C(F)(F)F)cc(-c4ccc(C(F)(F)F)cc4)n3)ccn2)s1 [Example 321, 5-[4-Trifluoromethyl-6-(4-trifluoromethyl-phenyl)-[2,4′]bipyridinyl-2′-yl]-thiophene-2-sulfonic acid amide] | 97 °C (dec.)
Cc1cc(-c2ccc(C(F)(F)F)cc2)nc(-c2ccnc(-c3ccc(S(N)(=O)=O)s3)c2)c1 [Example 323, 5-[4-Methyl-6-(4-trifluoromethyl-phenyl)-[2,4′]bipyridinyl-2′-yl]-thiophene-2-sulfonic acid amide] | 228 °C (dec.)
Cc1cc(-c2ccc(C(F)(F)F)cc2)cc(-c2nc(-c3ccc(S(=O)(=O)NC(C)(C)C)s3)cs2)n1 [Example 324, 5-{2-[6-Methyl-4-(4-trifluoromethyl-phenyl)-pyridin-2-yl]-thiazol-4-yl}-thiophene-2-sulfonic acid tert-butylamide] | 171 °C
Cc1cc(-c2ccc(C(F)(F)F)cc2)cc(-c2ccnc(-c3cccc(N)c3)n2)n1 [Example 326, 3-{4-[6-Methyl-4-(4-trifluoromethyl-phenyl)-pyridin-2-yl]-pyrimidin-2-yl}-phenylamine] | 167 °C
Cc1cc(-c2ccc(C(F)(F)F)cc2)cc(-c2cccc(-c3cccc(N)c3)n2)n1 [Example 327, 3-[6′-Methyl-4′-(4-trifluoromethyl-phenyl)-[2,2′]bipyridinyl-6-yl]-phenylamine] | 167 °C
COc1cc(-c2cc(C)nc(-c3ccnc(-c4cccc(S(=O)(=O)NC(C)(C)C)c4)c3)c2)ccc1C(F)(F)F [Example 336, N-tert-Butyl-3-[4-(3-methoxy-4-trifluoromethyl-phenyl)-6-methyl-[2,4′]bipyridinyl-2′-yl]-benzenesulfonamide] | 189 °C
COc1cc(-c2cc(C)nc(-c3ccnc(-c4ccc(S(=O)(=O)NC(C)(C)C)s4)c3)c2)ccc1C(F)(F)F [Example 339, 5-[4-(3-Methoxy-4-trifluoromethyl-phenyl)-6-methyl-[2,4′]bipyridinyl-2′-yl]-thiophene-2-sulfonic acid tert-butylamide] | 209 °C (dec.)
COc1cc(-c2cc(C)nc(-c3ccnc(-c4cccc(S(N)(=O)=O)c4)c3)c2)ccc1C(F)(F)F [Example 340, 3-[4-(3-Methoxy-4-trifluoromethyl-phenyl)-6-methyl-[2,4′]bipyridinyl-2′-yl]-benzenesulfonamide] | 233 °C (dec.)
